Patent US20150105252A1, “SUBSTITUTED PYRAZOLES AS HERBICIDES” (E I DU PONT DE NEMOURS AND COMPANY, priority 2013, published 2015)

Key:
lambsquarters [1] = assay: Test C preemergence; format: in vivo, Chenopodium album; details: for Lambsquarters plant response rating: preemergence
Summary of the method: (§1)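 Greenhouse pot test: preemergence application onto freshly seeded loam/sand mix, postemergence application onto seedlings (1–4 leaves, 2–18 cm) in peat-vermiculite substrate. Responses scored visually 13 to 15 days later relative to controls, where 0 means no effect and 100 means complete control; a dash indicates no result.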

blackgrass = assay: Test C postemergence; format: in vivo, Alopecurus myosuroides
Summary of the method: as §1

wheat = assay: Test C postemergence; format: in vivo, Triticum aestivum
Summary of the method: as §1

galium = assay: Test C postemergence; format: in vivo, Galium aparine
Summary of the method: as §1

crabgrass, large = assay: Test C postemergence; format: in vivo, Digitaria sanguinalis
Summary of the method: as §1

lambsquarters [2] = assay: Test C postemergence; format: in vivo, Chenopodium album
Summary of the method: as §1

morningglory = assay: Test C postemergence; format: in vivo, Ipomoea coccinea
Summary of the method: as §1

pigweed = assay: Test C postemergence; format: in vivo, Amaranthus retroflexus
Summary of the method: as §1

barnyardgrass = assay: Test C postemergence; format: in vivo, Echinochloa crus-galli
Summary of the method: as §1

waterhemp = assay: Test C postemergence; format: in vivo, Amaranthus rudis
Summary of the method: as §1

oat, wild = assay: Test C postemergence; format: in vivo, Avena fatua
Summary of the method: as §1

kochia = assay: Test C postemergence; format: in vivo, Kochia scoparia
Summary of the method: as §1

velvetleaf = assay: Test C postemergence; format: in vivo, Abutilon theophrasti
Summary of the method: as §1

chickweed = assay: Test C postemergence; format: in vivo, Stellaria media
Summary of the method: as §1

[3] = Postemergence, 31 g ai/ha, visually evaluated after 13 to 15 days
[4] = postemergence, 62 g ai/ha, scale 0 to 100
[5] = postemergence, 250 g ai/ha, scale 0 to 100 (0 no effect, 100 complete control)
[6] = postemergence, 125 g ai/ha, scale 0 to 100, 0 no effect, 100 complete control

Q: With CCCc1cc(C(=O)NCC(F)(F)F)nn1Cc1ccnc(C(F)(F)F)c1 [Compound 105] as the compound, how does the “Plant response rating (scale of 0 to 100), Lambsquarters” value (lambsquarters [1]; Preemergence, 250 g ai/ha) read?
A: 100

Q: What about the “Lambsquarters plant response rating” value (lambsquarters [1]; 31 g ai/ha, visual rating, scale 0 to 100 (0 no effect, 100 complete control), 13 to 15 days) of the same compound?
A: 85

Q: What about the “Lambsquarters plant response rating” value (lambsquarters [1]; 62 g ai/ha, scale 0 to 100 (0 no effect, 100 complete control), 13 to 15 days) of the same compound?
A: 100

Q: And the “Lambsquarters plant response rating” value (lambsquarters [1]; 125 g ai/ha, scale 0 to 100, 0 is no effect, 100 is complete control)?
A: 100

Q: What about the “Plant response rating (scale of 0 to 100 where 0 is no effect and 100 is complete control), Blackgrass” value (blackgrass; [3]) of the same compound?
A: 10

Q: And the “Blackgrass plant response rating” value (blackgrass; [4])?
A: 30

Q: And the “Plant response rating, Blackgrass” value (blackgrass; [5])?
A: 60

Q: What about the “Plant response rating, Blackgrass” value (blackgrass; [6]) of the same compound?
A: 35

Q: And the “Plant response rating (scale of 0 to 100 where 0 is no effect and 100 is complete control), Wheat” value (wheat; [3])?
A: 5

Q: And the “Wheat plant response rating” value (wheat; [4])?
A: 5

Q: What about the “Plant response rating, Wheat” value (wheat; [5]) of the same compound?
A: 45

Q: And the “Plant response rating, Wheat” value (wheat; [6])?
A: 10

Q: And the “Plant response rating (scale of 0 to 100 where 0 is no effect and 100 is complete control), Galium” value (galium; [3])?
A: 55

Q: What about the “Galium plant response rating” value (galium; [4]) of the same compound?
A: 85

Q: And the “Plant response rating, Galium” value (galium; [5])?
A: 90

Q: What about the “Plant response rating, Galium” value (galium; [6]) of the same compound?
A: 85

Q: And the “Plant response rating (scale of 0 to 100 where 0 is no effect and 100 is complete control), Crabgrass, Large” value (crabgrass, large; [3])?
A: 35

Q: What about the “Crabgrass, Large plant response rating” value (crabgrass, large; [4]) of the same compound?
A: 45

Q: And the “Plant response rating, Crabgrass, Large” value (crabgrass, large; [5])?
A: 95

Q: And the “Plant response rating, Crabgrass, Large” value (crabgrass, large; [6])?
A: 90

Q: And the “Plant response rating (scale of 0 to 100 where 0 is no effect and 100 is complete control), Lambsquarters” value (lambsquarters [2]; [3])?
A: 75

Q: What about the “Lambsquarters plant response rating” value (lambsquarters [2]; [4]) of the same compound?
A: 95

Q: What about the “Plant response rating, Lambsquarters” value (lambsquarters [2]; [5]) of the same compound?
A: 98

Q: What about the “Plant response rating, Lambsquarters” value (lambsquarters [2]; [6]) of the same compound?
A: 95

Q: And the “Plant response rating (scale of 0 to 100 where 0 is no effect and 100 is complete control), Morningglory” value (morningglory; [3])?
A: 80

Q: What about the “Morningglory plant response rating” value (morningglory; [4]) of the same compound?
A: 80

Q: And the “Plant response rating, Morningglory” value (morningglory; [5])?
A: 95

Q: What about the “Plant response rating, Morningglory” value (morningglory; [6]) of the same compound?
A: 85

Q: What about the “Plant response rating (scale of 0 to 100 where 0 is no effect and 100 is complete control), Pigweed” value (pigweed; [3]) of the same compound?
A: 75

Q: And the “Pigweed plant response rating” value (pigweed; [4])?
A: 85

Q: What about the “Plant response rating, Pigweed” value (pigweed; [5]) of the same compound?
A: 90

Q: And the “Plant response rating, Pigweed” value (pigweed; [6])?
A: 85

Q: What about the “Plant response rating (scale of 0 to 100 where 0 is no effect and 100 is complete control), Barnyardgrass” value (barnyardgrass; [3]) of the same compound?
A: 10

Q: What about the “Barnyardgrass plant response rating” value (barnyardgrass; [4]) of the same compound?
A: 20

Q: And the “Plant response rating, Barnyardgrass” value (barnyardgrass; [5])?
A: 85

Q: And the “Plant response rating, Barnyardgrass” value (barnyardgrass; [6])?
A: 45

Q: What about the “Plant response rating (scale of 0 to 100 where 0 is no effect and 100 is complete control), Waterhemp” value (waterhemp; [3]) of the same compound?
A: 65

Q: What about the “Waterhemp plant response rating” value (waterhemp; [4]) of the same compound?
A: 75

Q: What about the “Plant response rating, Waterhemp” value (waterhemp; [5]) of the same compound?
A: 85

Q: And the “Plant response rating, Waterhemp” value (waterhemp; [6])?
A: 75

Q: And the “Plant response rating (scale of 0 to 100 where 0 is no effect and 100 is complete control), Oat, Wild” value (oat, wild; [3])?
A: 25

Q: And the “Oat, Wild plant response rating” value (oat, wild; [4])?
A: 30

Q: What about the “Plant response rating, Oat, Wild” value (oat, wild; [5]) of the same compound?
A: 60

Q: What about the “Plant response rating, Oat, Wild” value (oat, wild; [6]) of the same compound?
A: 45

Q: What about the “Plant response rating (scale of 0 to 100 where 0 is no effect and 100 is complete control), Kochia” value (kochia; [3]) of the same compound?
A: 90

Q: What about the “Kochia plant response rating” value (kochia; [4]) of the same compound?
A: 90

Q: And the “Plant response rating, Kochia” value (kochia; [5])?
A: 95

Q: What about the “Plant response rating, Kochia” value (kochia; [6]) of the same compound?
A: 90

Q: What about the “Plant response rating (scale of 0 to 100 where 0 is no effect and 100 is complete control), Velvetleaf” value (velvetleaf; [3]) of the same compound?
A: 40

Q: And the “Velvetleaf plant response rating” value (velvetleaf; [4])?
A: 55

Q: What about the “Plant response rating, Velvetleaf” value (velvetleaf; [5]) of the same compound?
A: 75

Q: And the “Plant response rating, Velvetleaf” value (velvetleaf; [6])?
A: 70

Q: What about the “Plant response rating (scale of 0 to 100 where 0 is no effect and 100 is complete control), Chickweed” value (chickweed; [3]) of the same compound?
A: 90

Q: What about the “Chickweed plant response rating” value (chickweed; [4]) of the same compound?
A: 90

Q: And the “Plant response rating, Chickweed” value (chickweed; [5])?
A: 95

Q: What about the “Plant response rating, Chickweed” value (chickweed; [6]) of the same compound?
A: 95
